The results in this text go back to BindingDB's records for patent US10022387 (Incyte, 2018).

In assay [1] the target is T1, Phosphatidylinositol 4,5-bisphosphate 3-kinase catalytic subunit delta isoform (Homo sapiens, UniProt O00329).
T1 sequence (O00329 whole entry): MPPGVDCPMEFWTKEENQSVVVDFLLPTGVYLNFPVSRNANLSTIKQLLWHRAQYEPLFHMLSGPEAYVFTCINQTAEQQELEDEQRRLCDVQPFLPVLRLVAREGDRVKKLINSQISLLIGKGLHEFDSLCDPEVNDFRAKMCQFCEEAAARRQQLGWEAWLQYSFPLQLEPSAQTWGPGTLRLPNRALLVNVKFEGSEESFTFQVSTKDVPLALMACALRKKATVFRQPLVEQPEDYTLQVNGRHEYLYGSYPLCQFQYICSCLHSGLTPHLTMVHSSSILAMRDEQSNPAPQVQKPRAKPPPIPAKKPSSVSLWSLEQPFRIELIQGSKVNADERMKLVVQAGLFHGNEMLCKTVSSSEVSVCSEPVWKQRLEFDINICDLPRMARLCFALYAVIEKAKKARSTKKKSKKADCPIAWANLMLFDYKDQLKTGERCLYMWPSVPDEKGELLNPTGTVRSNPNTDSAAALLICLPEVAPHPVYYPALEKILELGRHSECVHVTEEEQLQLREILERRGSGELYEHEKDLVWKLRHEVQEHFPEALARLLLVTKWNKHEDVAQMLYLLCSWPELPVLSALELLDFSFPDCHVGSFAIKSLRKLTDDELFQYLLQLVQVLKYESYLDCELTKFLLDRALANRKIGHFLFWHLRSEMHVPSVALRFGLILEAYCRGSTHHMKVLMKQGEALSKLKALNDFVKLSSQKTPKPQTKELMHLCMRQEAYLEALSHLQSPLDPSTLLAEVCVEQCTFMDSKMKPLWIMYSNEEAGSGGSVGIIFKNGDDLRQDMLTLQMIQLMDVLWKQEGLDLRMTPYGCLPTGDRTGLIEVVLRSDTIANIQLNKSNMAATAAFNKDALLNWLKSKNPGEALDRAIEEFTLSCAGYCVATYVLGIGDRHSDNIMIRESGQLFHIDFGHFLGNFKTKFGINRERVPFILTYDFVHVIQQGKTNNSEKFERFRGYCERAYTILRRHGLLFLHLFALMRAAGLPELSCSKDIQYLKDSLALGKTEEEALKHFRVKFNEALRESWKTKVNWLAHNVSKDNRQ
The assay is described as follows: PI3Kdelta Scintillation Proximity Assay. To be noted: pH 6.7; 25 °C. An excerpt:
[γ-33P]ATP (10 mCi/mL) and Wheat Germ Agglutinin (WGA) YSi SPA Scintillation Beads was purchased from Perkin-Elmer (Waltham, Mass.). Lipid kinase substrate, D-myo-Phosphatidylinositol 4,5-bisphosphate (PtdIns(4,5)P2)D (+)-sn-1,2-di-O-octanoylglyceryl, 3-O-phospho linked (PIP2), CAS 204858-53-7, was purchased from Echelon Biosciences (Salt Lake City, Utah). PI3Kδ (p110δ/p85α) Recombinant Human Protein was purchased from Eurofins (St. Charles, Mo.). ATP, MgCl2, DTT, EDTA, MOPS and CHAPS were purchased from Sigma-Aldrich (St. Louis, Mo.).The kinase reaction was conducted in polystyrene 384-well Greiner Bio-one white plate from Thermo Fisher Scientific in a final volume of 25 μL. Inhibitors were first diluted serially in DMSO and added to the plate wells before the addition of other reaction components. The final concentration of DMSO in the assay was 2%. The PI3Kδ assay was carried out at room temperature in 20 mM MOPS, pH 6.7, 10 mM MgCl2, 5 mM DTT and CHAPS 0.03%. Reactions were initiated by the addition of ATP, the final reaction mixture consisted of 20 μM PIP2, 2 μM ATP, 0.5 μCi [γ-33P] ATP, 3.4 nM PI3Kδ. Reactions were incubated for 120 min and terminated by the addition of 40 μL SPA beads suspended in quench buffer: 163 mM potassium phosphate pH 7.8, 20% glycerol, 25 mM EDTA. The final concentration of SPA beads is 1.0 mg/mL. After the plate sealing, plates were shaken overnight at room temperature and centrifuged at 1500 rpm for 10 min, the radioactivity of the product was determined by scintillation counting on Topcount (Perkin-Elmer). IC50 determination was performed by fitting the curve of percent of the solvent control activity versus the log of the inhibitor concentration using the GraphPad Prism 6.0 software.
On the technique in general: SPA uses beads or plates that emit light when radiolabelled molecules are held near them.

Assay [2] concerns the target Phosphatidylinositol 4,5-bisphosphate 3-kinase catalytic subunit gamma isoform (Homo sapiens, UniProt P48736). The assay is described as follows: PI3K-gamma Scintillation Proximity Assay. The settings on record: pH 6.7; 25 °C. An excerpt: γ-33P]ATP (10 mCi/mL) and Wheat Germ Agglutinin (WGA) YSi SPA Scintillation Beads was purchased from Perkin-Elmer (Waltham, Mass.). Lipid kinase substrate, D-myo-Phosphatidylinositol 4,5-bisphosphate (PtdIns(4,5)P2)D (+)-sn-1,2-di-O-octanoylglyceryl, 3-O-phospho linked (PIP2), CAS 204858-53-7, was purchased from Echelon Biosciences (Salt Lake City, Utah). PI3Kγ (p110γ) Recombinant Human Protein was purchased from Life technology (Grand Island, N.Y.). ATP, MgCl2, DTT, EDTA, MOPS and CHAPS were purchased from Sigma-Aldrich (St. Louis, Mo.).The kinase reaction was conducted in polystyrene 384-well Greiner Bio-one white plate from Thermo Fisher Scientific in a final volume of 25 μL. Inhibitors were first diluted serially in DMSO and added to the plate wells before the addition of other reaction components. The final concentration of DMSO in the assay was 2%. The PI3Kγ assay was carried out at room temperature in 20 mM MOPS, pH 6.7, 10 mM MgCl2, 5 mM DTT and CHAPS 0.03%. Reactions were initiated by the addition of ATP, the final reaction mixture consisted of 20 μM PIP2, 2 μM ATP, 0.5 μCi [γ-33P] ATP, 13 nM PI3Kγ. […] After the plate sealing, plates were shaken overnight at room temperature and centrifuged at 1500 rpm for 10 min, the radioactivity of the product was determined by scintillation counting on Topcount (Perkin-Elmer). […]

The term IC50 denotes the midpoint of a concentration-inhibition curve.

Phosphatidylinositol 4,5-bisphosphate 3-kinase catalytic subunit gamma isoform, sequence (P48736 whole entry, canonical isoform): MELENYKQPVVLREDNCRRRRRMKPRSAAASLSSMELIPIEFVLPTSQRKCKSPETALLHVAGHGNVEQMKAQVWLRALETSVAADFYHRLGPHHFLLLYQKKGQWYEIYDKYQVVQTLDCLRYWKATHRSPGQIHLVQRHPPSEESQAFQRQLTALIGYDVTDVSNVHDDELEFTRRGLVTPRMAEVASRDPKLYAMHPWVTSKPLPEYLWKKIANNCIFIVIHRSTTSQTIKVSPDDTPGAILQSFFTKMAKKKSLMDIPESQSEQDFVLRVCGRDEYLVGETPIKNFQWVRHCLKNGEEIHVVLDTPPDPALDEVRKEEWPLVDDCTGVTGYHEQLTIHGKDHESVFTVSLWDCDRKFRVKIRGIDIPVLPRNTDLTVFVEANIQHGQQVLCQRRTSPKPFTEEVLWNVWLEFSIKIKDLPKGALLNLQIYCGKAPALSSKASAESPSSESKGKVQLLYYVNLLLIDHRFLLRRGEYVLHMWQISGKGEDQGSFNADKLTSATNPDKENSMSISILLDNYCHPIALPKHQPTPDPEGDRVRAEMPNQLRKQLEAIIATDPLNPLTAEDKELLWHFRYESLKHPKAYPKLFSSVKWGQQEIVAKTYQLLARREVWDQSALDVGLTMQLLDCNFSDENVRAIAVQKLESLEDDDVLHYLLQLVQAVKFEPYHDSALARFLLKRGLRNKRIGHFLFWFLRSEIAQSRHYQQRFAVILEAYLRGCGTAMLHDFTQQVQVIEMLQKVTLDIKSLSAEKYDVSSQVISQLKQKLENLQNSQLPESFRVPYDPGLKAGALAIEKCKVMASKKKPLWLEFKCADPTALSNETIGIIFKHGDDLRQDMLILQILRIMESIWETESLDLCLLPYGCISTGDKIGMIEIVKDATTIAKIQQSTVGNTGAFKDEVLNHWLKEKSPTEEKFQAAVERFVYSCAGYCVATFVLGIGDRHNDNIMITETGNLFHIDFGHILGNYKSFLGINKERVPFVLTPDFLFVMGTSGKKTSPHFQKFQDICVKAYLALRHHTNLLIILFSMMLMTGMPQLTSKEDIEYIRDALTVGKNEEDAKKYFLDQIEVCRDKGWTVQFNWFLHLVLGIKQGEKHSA

Molecule `COc1cncc(-c2ccc3nc(-c4cc5ccccc5[nH]4)oc3c2)c1` [US10022387, Example 4] yielded an IC50 in assay [1] of less than 5 µM. In the case of `CC(=O)Nc1cc(-c2ccc3nc(-c4nc5ccccc5[nH]4)oc3c2)cnc1F` [US10022387, Example 33], the half-maximal inhibitory concentration (IC50) in assay [1] is more than 5 µM; in assay [2] it was less than 1 µM. `CCS(=O)(=O)Nc1cncc(-c2ccc3nc(-c4nc5ccccc5[nH]4)oc3c2)c1` [US10022387, Example 73]: in assay [1], the IC50 was less than 5 µM.
